≈ marks a conversion by molar mass, not a printed value. Calls of active or inactive are those of the source. The calls are words filed in the database; no cut-off is given here. Some results are limits rather than exact numbers.

The test system of one data set is Bacillus subtilis. Description: Antibacterial activity against Bacillus subtilis ATCC 23857 after 18 hrs by CLSI based broth microdilution method. Format: functional. The note with it: ATCC 23857, 18 h. On the technique in general: In broth dilution the organism is exposed to a series of concentrations in liquid medium.
Data set [1] is described as follows: Cytotoxicity against mouse RAW264.7 cells assessed as cell proliferation at 64 uM after 1 hr by MTT assay relative to control. Format: cell-based. The note with it: read-out: Activity. Background: Formazan colour is commonly taken as a measure of viable cells.
Data set [2] concerns Escherichia coli. Description: Antibacterial activity against Escherichia coli ATCC 25922 after 18 hrs in presence of NaCl by CLSI based broth microdilution method (reference value: 16 microM). Type of data set: functional. The note with it: ATCC 25922, 18 h.
For data set [3], the system named is Escherichia coli. Put plainly: Antibacterial activity against Escherichia coli ATCC 25922 after 18 hrs in presence of KCl by CLSI based broth microdilution method (reference value: 16 microM). The note with it: ATCC 25922, 18 h. Format: functional.
For data set [4], the system named is Escherichia coli. Description: Antibacterial activity against Escherichia coli ATCC 25922 after 18 hrs in presence of MgCl2 by CLSI based broth microdilution method (reference value: 16 microM). Type of data set: functional. The note with it: ATCC 25922, 18 h.
Data set [5] concerns Escherichia coli. Put plainly: Antibacterial activity against Escherichia coli ATCC 25922 after 18 hrs in presence of FeCl3 by CLSI based broth microdilution method (reference value: 16 microM). Type of data set: functional. The note with it: ATCC 25922, 18 h.
The subject of data set [6] is Staphylococcus aureus. Put plainly: Antibacterial activity against Staphylococcus aureus ATCC 25923 after 18 hrs in presence of FeCl3 by CLSI based broth microdilution method (reference value: 128 microM). Type of data set: functional. The note with it: ATCC 25923, 18 h.
In data set [7] the test system is Escherichia coli. Put plainly: Antibiofilm activity against Escherichia coli ATCC 25922 at 2 times MIC after 24 hrs by crystal violet staining based assay. Format: functional, organism-based.
The test system of data set [8] is Escherichia coli. Put plainly: Antibiofilm activity against Escherichia coli ATCC 25922 assessed as reduction in biofilm inhibition at MIC after 24 hrs by crystal violet staining based assay relative to control. Type of data set: functional.
Data set [9] relates to Escherichia coli. Description: Antimicrobial activity against Escherichia coli ATCC 25922 preincubated for 1 hr in presence of 10% mouse serum and measured after 18 hrs by CLSI-based broth microdilution assay (reference value: 16 microM). Format: functional.
Data set [10] deals with Escherichia coli. Description: Antimicrobial activity against Escherichia coli ATCC 25922 preincubated for 6 hrs in presence of 10% mouse serum and measured after 18 hrs by CLSI-based broth microdilution assay (reference value: 16 microM). Format: functional.
Data set [11] deals with Escherichia coli. Put plainly: Ratio of MIC for Escherichia coli ATCC 25922 preincubated for 6 hrs in presence of 10% mouse serum and measured after 18 hrs to MIC for antibacterial activity against Escherichia coli ATCC 25922 after 18 hrs. Format: functional.
The test system of data set [12] is Escherichia coli. Put plainly: Disruption of membrane integrity in Escherichia coli ATCC 25922 assessed as membrane damage by measuring PI fluorescence incubated for 1 hr by PI dye based flow cytometric analysis. Type of data set: functional, organism-based.
Data set [13] concerns Staphylococcus aureus. Description: Ratio of antibacterial activity against Staphylococcus aureus ATCC 25923 in presence of MgCl2 to antibacterial activity against Staphylococcus aureus ATCC 25923. Type of data set: functional.
Data set [14] relates to Staphylococcus aureus. Put plainly: Antibiofilm activity against Staphylococcus aureus ATCC 25923 at 1 to 2 times of MIC after 24 hrs by crystal violet staining based assay. Format: functional, organism-based.
Data set [15] relates to Escherichia coli. Description: Induction of ROS generation in Escherichia coli ATCC 25922. Type of data set: functional, organism-based.
The subject of data set [16] is Escherichia coli. Put plainly: Antibacterial activity against Escherichia coli ATCC 25922 after 18 hrs in presence of NaCl by CLSI based broth microdilution method (reference value: 64 microM). The note with it: ATCC 25922, 18 h. Format: functional.
Data set [17] relates to Staphylococcus aureus. Description: Antibacterial activity against Staphylococcus aureus ATCC 25923 after 18 hrs in presence of FeCl3 by CLSI based broth microdilution method (reference value: 32 microM). Format: functional. The note with it: ATCC 25923, 18 h.
For data set [18], the system named is Staphylococcus aureus. Description: Antibiofilm activity against Staphylococcus aureus ATCC 25923 at 2 times of MIC after 24 hrs by crystal violet staining based assay. Format: functional, organism-based.
The test system of data set [19] is Escherichia coli. Description: Antibiofilm activity against Escherichia coli ATCC 25922 assessed as reduction in biofilm inhibition at 0.5 to 1 times of MIC after 24 hrs by crystal violet staining based assay. Type of data set: functional, organism-based.
Data set [20] deals with Escherichia coli. Put plainly: Antimicrobial activity against Escherichia coli ATCC 25922 at 1 mM preincubated for 6 hrs in presence of 200 ug/ml chymotrypsin and measured after 18 hrs by microplate reader analysis. Format: functional, organism-based.
The nature of data set [21]: Cytotoxicity against mouse RAW264.7 cells assessed as cell proliferation at 16 uM after 1 hr by MTT assay relative to control. Type of data set: cell-based. The note with it: read-out: Activity.
Data set [22] relates to Staphylococcus aureus. Put plainly: Antibacterial activity against Staphylococcus aureus ATCC 25923 after 18 hrs in presence of NaCl by CLSI based broth microdilution method (reference value: 8 microM). Format: functional. The note with it: ATCC 25923, 18 h.
Data set [23] relates to Staphylococcus aureus. Put plainly: Antibacterial activity against Staphylococcus aureus ATCC 25923 after 18 hrs in presence of KCl by CLSI based broth microdilution method (reference value: 8 microM). The note with it: ATCC 25923, 18 h. Type of data set: functional.
Data set [24] concerns Staphylococcus aureus. Put plainly: Antibacterial activity against Staphylococcus aureus ATCC 25923 after 18 hrs in presence of MgCl2 by CLSI based broth microdilution method (reference value: 8 microM). Format: functional. The note with it: ATCC 25923, 18 h.
The test system of data set [25] is Staphylococcus aureus. Put plainly: Antibacterial activity against Staphylococcus aureus ATCC 25923 after 18 hrs in presence of FeCl3 by CLSI based broth microdilution method (reference value: 8 microM). Format: functional. The note with it: ATCC 25923, 18 h.
The test system of the next data set is Pseudomonas aeruginosa. Put plainly: Antibiofilm activity against Pseudomonas aeruginosa ATCC 27853 at 2 times of MIC after 24 hrs by crystal violet staining based assay. Type of data set: functional, organism-based.
The subject of data set [26] is Staphylococcus aureus. Description: Antibacterial activity against Staphylococcus aureus ATCC 25923 after 18 hrs in presence of FeCl3 by CLSI based broth microdilution method (reference value: 4 microM). Format: functional. The note with it: ATCC 25923, 18 h.

A word on the MIC: it is the least concentration at which growth counts as inhibited. `CCCC(=O)NC(Cc1cn(CCCC[C@H](NC(C)=O)C(=O)NCC(=O)N[C@@H](CC(C)C)C(=O)N[C@@H](CC(C)C)C(=O)N[C@H](CCCCN)C(=O)N[C@@H](CCCNC(=N)N)C(=O)N[C@H](C(=O)N[C@H](CCCCN)C(=O)N[C@H](C(=O)N[C@@H](CC(C)C)C(=O)N[C@@H](CC(C)C)C(N)=O)[C@@H](C)O)[C@@H](C)CC)nn1)C(=O)NCC(=O)N[C@@H](CC(C)C)C(=O)N[C@@H](CC(C)C)C(=O)N[C@H](CCCCN)C(=O)N[C@@H](CCCNC(=N)N)C(=O)N[C@H](C(=O)N[C@H](CCCCN)C(=O)N[C@H](C(=O)N[C@@H](CC(C)C)C(=O)N[C@@H](CC(C)C)C(N)=O)[C@@H](C)O)[C@@H](C)CC` (stereo partly drawn): the MIC was 4 µM (≈ 10.7 µg/mL) in the data set on Bacillus subtilis; 128 µM in the data set on Escherichia coli [2]; 16 µM in the data set on Escherichia coli [3]; 32 µM in the data set on Escherichia coli [4]; 16 µM in the data set on Escherichia coli [5]; 128 µM with Staphylococcus aureus [6]. Also, the MIC in the data set on Escherichia coli [9] and with Escherichia coli [10] was 16 µM throughout. Also, the viability at 1 h, 64 µM in data set [1] is greater than 80%. Besides, the inhibition result in the data set on Escherichia coli [7] and in the data set on Staphylococcus aureus [14] was “Active” each time. Moreover, the “inhibition (INH)” value in the data set with Escherichia coli [8] was greater than 50%. For the same compound, the figures for the Ratio in the data set on Escherichia coli [11] and with Staphylococcus aureus [13] were 1 and 2 - 4, respectively. The Activity result in the data set on Escherichia coli [12] is “Dose-dependent effect”. In the data set with Escherichia coli [15], the outcome was Active.
In the case of `CCCCCCCC(=O)NCC(=O)N[C@@H](CC(C)C)C(=O)N[C@@H](CC(C)C)C(=O)N[C@H](CCCCN)C(=O)N[C@@H](CCCNC(=N)N)C(=O)N[C@H](C(=O)N[C@H](CCCCN)C(=O)N[C@H](C(=O)N[C@@H](CC(C)C)C(=O)N[C@@H](CC(C)C)C(N)=O)[C@@H](C)O)[C@@H](C)CC`, the figures for the MIC in the data set with Bacillus subtilis, with Escherichia coli [16] and with Staphylococcus aureus [17] were 4 µM (≈ 5.12 µg/mL), 64 µM and 32 µM, respectively. The viability at 1 h, 64 µM in data set [1] is greater than 80%. The inhibition entry with Staphylococcus aureus [18], with Escherichia coli [7] and in the data set on Escherichia coli [19] was “Active” each time. Moreover, the result in the data set on Escherichia coli [20] was Active. Also, the Ratio in the data set with Escherichia coli [11] was 1; in the data set on Staphylococcus aureus [13], 2 - 4. The Activity result in the data set on Escherichia coli [12] is “Dose-dependent effect”. Further, the outcome with Escherichia coli [15] was inactive.
`CCCCCCCCCC(=O)NCC(=O)N[C@@H](CC(C)C)C(=O)N[C@@H](CC(C)C)C(=O)N[C@H](CCCCN)C(=O)N[C@@H](CCCNC(=N)N)C(=O)N[C@H](C(=O)N[C@H](CCCCN)C(=O)N[C@H](C(=O)N[C@@H](CC(C)C)C(=O)N[C@@H](CC(C)C)C(N)=O)[C@@H](C)O)[C@@H](C)CC`: the MIC in the data set with Bacillus subtilis was determined as 8 µM (≈ 10.5 µg/mL); with Escherichia coli [2] it was 32 µM; with Escherichia coli [3] it was 16 µM; with Escherichia coli [4], 16 µM; in the data set on Escherichia coli [5], 8 µM; in the data set on Staphylococcus aureus [22], 8 µM. The MIC in the data set with Staphylococcus aureus [23] is 8 µM; in the data set on Staphylococcus aureus [24], 8 µM; in the data set on Staphylococcus aureus [25], 8 µM; in the data set on Escherichia coli [9], 16 µM; in the data set on Escherichia coli [10], 16 µM. Besides, the viability at 1 h, 16 µM in [21] is less than 80%. For the same compound, the inhibition result with Staphylococcus aureus [18], in the data set on Escherichia coli [19] and in the data set on Pseudomonas aeruginosa was “Active” throughout. The inhibition result with Escherichia coli [7] is “inactive”. Further, the Ratio in the data set on Escherichia coli [11] is on record as 1; in the data set on Staphylococcus aureus [13] it was 2 - 4. For the same compound, in the data set with Escherichia coli [12], the Activity result was “Dose-dependent effect”. The outcome in the data set on Escherichia coli [15] was inactive.
`CCCCCCCCCCCC(=O)NCC(=O)N[C@@H](CC(C)C)C(=O)N[C@@H](CC(C)C)C(=O)N[C@H](CCCCN)C(=O)N[C@@H](CCCNC(=N)N)C(=O)N[C@H](C(=O)N[C@H](CCCCN)C(=O)N[C@H](C(=O)N[C@@H](CC(C)C)C(=O)N[C@@H](CC(C)C)C(N)=O)[C@@H](C)O)[C@@H](C)CC`: the MIC with Bacillus subtilis was found to be 2 µM (≈ 2.67 µg/mL); in the data set on Escherichia coli [2], 16 µM; in the data set with Escherichia coli [3], 4 µM; with Escherichia coli [4] it was 16 µM; in the data set with Escherichia coli [5], 4 µM; with Staphylococcus aureus [26], 8 µM. Further, the MIC with Escherichia coli [9] stood at 16 µM; with Escherichia coli [10] it was 32 µM. Also, the inhibition result in the data set with Staphylococcus aureus [18], in the data set on Escherichia coli [7] and in the data set with Escherichia coli [19] was “Active” throughout. Moreover, the Ratio is reported as 2 with Escherichia coli [11] and 2 - 4 in the data set on Staphylococcus aureus [13]. In the data set on Escherichia coli [12], the Activity entry was “Dose-dependent effect”. Moreover, the outcome with Escherichia coli [15] was inactive.

(Values after ChEMBL document CHEMBL4359906, “Design and synthesis of new N-terminal fatty acid modified-antimicrobial peptide analogues with potent in vitro biological activity” (Eur J Med Chem, 2019).)
